Seven compounds from PubChem BioAssay AID1259407 (Chemical Carcinogenesis Research Information System (CCRIS), 2018) can be followed below.

Active and inactive are the calls of the source. The rule behind the calls is not given here.

The data set relates to CCRIS mutagenicity, Ames/micronucleus/aberration tests. Kind of data set: CCRIS mutagenicity studies.
[1] abbreviates: Test System: AMES SALMONELLA TYPHIMURIUM, Strain/Indicator: TA98, Metabolic Activation: NONE, Method: STANDARD PLATE.
The mark [2] stands for this setting: Test System: AMES SALMONELLA TYPHIMURIUM, Strain/Indicator: TA98, Metabolic Activation: RAT, LIVER, S-9, AROCLOR 1254, Method: STANDARD PLATE.
[3] abbreviates: Test System: AMES SALMONELLA TYPHIMURIUM, Strain/Indicator: TA100, Metabolic Activation: NONE, Method: STANDARD PLATE.
Setting [4] is: Test System: AMES SALMONELLA TYPHIMURIUM, Strain/Indicator: TA100, Metabolic Activation: RAT, LIVER, S-9, AROCLOR 1254, Method: STANDARD PLATE.
Where [5] appears, read: Test System: AMES SALMONELLA TYPHIMURIUM, Strain/Indicator: TA1535, Metabolic Activation: NONE, Method: STANDARD PLATE.
[6] abbreviates: Test System: AMES SALMONELLA TYPHIMURIUM, Strain/Indicator: TA1535, Metabolic Activation: RAT, LIVER, S-9, AROCLOR 1254, Method: STANDARD PLATE.

Turning to `C=C(Br)CCl`, the mutagenic call was “active; positive” (Test System: AMES SALMONELLA TYPHIMURIUM, Strain/Indicator: TA100, Metabolic Activation: RAT, LIVER, MICROSOMES, PHENOBARBITAL, NADPH COFACTORS, Method: STANDARD PLATE) and “inactive; negative” (Test System: AMES SALMONELLA TYPHIMURIUM, Strain/Indicator: TA100, Metabolic Activation: RAT, LIVER, MICROSOMES, PHENOBARBITAL, Method: STANDARD PLATE).
In the case of `CCc1c2ccccc2cc2ccc3ccccc3c12`, the mutagenic call (Test System: AMES SALMONELLA TYPHIMURIUM, Strain/Indicator: TA98, Method: STANDARD PLATE) is “inactive; negative”; the mutagenic call (Test System: AMES SALMONELLA TYPHIMURIUM, Strain/Indicator: TA100, Metabolic Activation: RAT, LIVER, S-9, PHENOBARBITAL, Method: STANDARD PLATE) is “inactive; negative”; the mutagenic call (Test System: AMES SALMONELLA TYPHIMURIUM, Strain/Indicator: TA100, Method: STANDARD PLATE) is “inactive; negative”.
Consider `CC(C)CCC[C@@H](C)[C@H]1CC[C@H]2[C@@H]3C[C@@H](O)[C@@]4(O)C[C@@H](O)CC[C@]4(C)[C@H]3CC[C@]12C`, for which the mutagenic call is, setting by setting: (Test System: AMES SALMONELLA TYPHIMURIUM, Strain/Indicator: TA97, Metabolic Activation: NONE, Method: STANDARD PLATE) “active; positive”; (Test System: AMES SALMONELLA TYPHIMURIUM, Strain/Indicator: TA97, Metabolic Activation: RAT, LIVER, S-9, AROCLOR 1254, Method: STANDARD PLATE) “inactive; negative”; under setting [1], “active; positive”; under setting [2], “inactive; negative”; under setting [3], “active; positive”; under setting [4], “inactive; negative”. Moreover, the mutagenic call by setting is: (Test System: AMES SALMONELLA TYPHIMURIUM, Strain/Indicator: TA102, Metabolic Activation: NONE, Method: STANDARD PLATE) “active; positive”; (Test System: AMES SALMONELLA TYPHIMURIUM, Strain/Indicator: TA102, Metabolic Activation: RAT, LIVER, S-9, AROCLOR 1254, Method: STANDARD PLATE) “inactive; negative”; under setting [5], “active; positive”; under setting [6], “active; positive”; (Test System: CHINESE HAMSTER V-79, Strain/Indicator: V-79/8-AZAGUANINE, Metabolic Activation: NONE) “active; positive”; (Test System: CHINESE HAMSTER V-79, Strain/Indicator: V-79/OUABAIN, Metabolic Activation: NONE) “inactive; negative”. Besides, the mutagenic call is, setting by setting: (Test System: IN VITRO CHROMOSOMAL ABERRATIONS, Strain/Indicator: CHINESE HAMSTER OVARY EPITHELIAL (CHO-K1) CELLS, Metabolic Activation: NONE) “active; positive (structural changes)”; (Test System: IN VITRO CHROMOSOMAL ABERRATIONS, Strain/Indicator: CHINESE HAMSTER OVARY EPITHELIAL (CHO-K1) CELLS, Metabolic Activation: RAT, LIVER, S-9, AROCLOR 1254) “active; positive (structural changes); lower response in presence of s-9”.
Consider `CN=NNc1ccc(C(=O)O)cc1`, for which the mutagenic call is “active; positive” (Test System: AMES SALMONELLA TYPHIMURIUM, Strain/Indicator: TA92, Metabolic Activation: NONE, Method: STANDARD PLATE) and “active; positive” (Test System: E. COLI B, Strain/Indicator: TM9, Metabolic Activation: NONE, Method: STANDARD PLATE).
Take `CCON(OC(C)=O)C(=O)c1ccccc1`: the mutagenic call reads like this: under setting [1], “active; positive”; under setting [3], “active; positive”; (Test System: AMES SALMONELLA TYPHIMURIUM, Strain/Indicator: TA100, Metabolic Activation: RAT, S-9, AROCLOR, Method: STANDARD PLATE) “active; positive”.
With `O=C1c2ccccc2-c2ccccc21`, the mutagenic call reads like this: (Test System: AMES SALMONELLA TYPHIMURIUM, Strain/Indicator: TA98, Metabolic Activation: HAMSTER, LIVER, S-9, AROCLOR 1254, Method: STANDARD PLATE) “inactive; negative”; under setting [1], “inactive; negative”; under setting [2], “inactive; negative”; (Test System: AMES SALMONELLA TYPHIMURIUM, Strain/Indicator: TA100, Metabolic Activation: HAMSTER, LIVER, S-9, AROCLOR 1254, Method: STANDARD PLATE) “inactive; negative”; under setting [3], “inactive; negative”; under setting [4], “inactive; negative”. Besides, the mutagenic call runs as follows: (Test System: AMES SALMONELLA TYPHIMURIUM, Strain/Indicator: TA1535, Metabolic Activation: HAMSTER, LIVER, S-9, AROCLOR 1254, Method: STANDARD PLATE) “inactive; negative”; under setting [5], “inactive; negative”; under setting [6], “inactive; negative”; (Test System: AMES SALMONELLA TYPHIMURIUM, Strain/Indicator: TA1537, Metabolic Activation: HAMSTER, LIVER, S-9, AROCLOR 1254, Method: STANDARD PLATE) “inactive; negative”; (Test System: AMES SALMONELLA TYPHIMURIUM, Strain/Indicator: TA1537, Metabolic Activation: NONE, Method: STANDARD PLATE) “inactive; negative”; (Test System: AMES SALMONELLA TYPHIMURIUM, Strain/Indicator: TA1537, Metabolic Activation: RAT, LIVER, S-9, AROCLOR 1254, Method: STANDARD PLATE) “inactive; negative”. Moreover, the mutagenic call is, setting by setting: (Test System: MOUSE LYMPHOMA, Strain/Indicator: L5178Y (TK+/TK-), Metabolic Activation: NONE, Method: SUSPENSION/PLATE) “inactive; negative. reevaluation of results: inconclusive”; (Test System: MOUSE LYMPHOMA, Strain/Indicator: L5178Y (TK+/TK-), Metabolic Activation: RAT, LIVER, S-9, AROCLOR 1254, Method: SUSPENSION/PLATE) “inactive; negative. reevaluation of results: negative”.
For `Cc1c(N)cnc2c1nc1c(C)cccn12`, the mutagenic call reads like this: under setting [1], “inactive; negative”; (Test System: AMES SALMONELLA TYPHIMURIUM, Strain/Indicator: TA98, Metabolic Activation: RAT, LIVER, CYTOSOL, AROCLOR 1254, Method: STANDARD PLATE) “active; positive”; (Test System: AMES SALMONELLA TYPHIMURIUM, Strain/Indicator: TA98, Metabolic Activation: RAT, LIVER, MICROSOMES, AROCLOR 1254, Method: STANDARD PLATE) “active; positive”; under setting [2], “active; positive”.
